The subject of assay [1] is liver cancer cell line SMMC7721. In words: MTT cancer cell cytotoxicity assay, SMMC7721. The assay is classed as cell-based, human. The conditions noted are these: Homo sapiens, SMMC-7721, SMMC7721 cells, 48-72 h. Here is the method: (§1) Identification of 3-(2-methoxyphenyl)-6-(4-methoxyphenyl)-[1,2,4]triazolo[4,3-a]pyridine and analogs as inhibitors of cell proliferation that were evaluated with standard MTT cancer cell cytotoxicity assay (IC50)
(§2) Human lung cancer cell line A549, breast cancer cell line T47D, liver cancer cell lines HepG2 and SMMC7721 as well as a mouse melanoma cell line B16F10 were used in the study. The cells were cultured in corresponding growth media recommended by American Type Culture Collection (ATCC) with the supplementation of penicillin G (100 U/ml)/streptomycin (100 µg/ml), and 10% fetal bovine serum (Hangzhou Sijiqing Biological Engineering Materials, Co., Ltd. China) at 37° C. in a humidified atmosphere containing 5% CO2. Cells at about 80% confluency were harvested by trypsinization. Cells were centrifuged, re-suspended in fresh growth media and counted. Corresponding numbers of cells were seeded to 96-well cell culture plates (HepG2 cell, T-47D and A549 cells at 3000 cells/well, SMMC-7721 cells at 5000 cells/well and B16F10 cells at 2000 cells/well) in a total volume of […]. Cells were incubated in CO2 incubator over night to allow the cells to attach. In next day, […] of medium containing testing (from 10 μM to 1 nM) or reference compounds was added to each well of the cells. Media without compound were used as 100% control. Cells were treated with each concentration of compounds in triplicates to ensure data accuracy. Cells were incubated with compounds in CO2 incubator for an additional 48-72 h at 37° C. After incubation, cells were removed from the CO2 incubator and […] of 5 mg/ml MTT (3-(4,5-dimethylthiazole-2-yl)-2,5-diphenyltetrazoliumbromide, Sigma) solution in PBS was added to each well. Cells were returned to CO2 incubator and incubated for additional 4 h. After the incubation, media were removed by aspiration and […] DMSO was added to each well. Plates were sealed with aluminum foil and shaked mildly on an orbital shaker for 10 min at room temperature. The absorption was measured at 550 nm with a plate reader (Varioskan Flash, Thermo Fisher Scientific) with 660 nm reading used as background control. The relative absorbance readings were calculated by subtracting readings at 660 nm from that at 550 nm. The relative absorbance was plotted again the concentrations of the testing compounds and the plots were fitted with a one-site lg(IC50) equation using Prism 5 software (GraphPad Software, Inc). The equation used in the curve fitting is as follows: relative absorbance reading=background reading+(maximal reading−brackground reading)/(1+10 ^(compound concentration-log IC50)). The background reading used in the calculation was obtained with 100% cell death using a reference anticancer drug, whereas the maximal reading was obtained in the well with no added compound. The IC50 value calculated from the equation represents the cytotoxic potency of a particular compound.

For assay [2], the system named is Human lung cancer cell line A549. Description: MTT cancer cell cytotoxicity assay, A549. The assay is classed as cell-based. The conditions noted are these: Homo sapiens, A549 cells, 48-72 h. As for the experimental part:
as §1, §2

The test system of assay [3] is liver cancer cell line HepG2. In words: MTT cancer cell cytotoxicity assay, HepG2. The following applies: Homo sapiens, HepG2 cells, 48-72 h. The assay is classed as cell-based, human. Here is the method:
as §1, §2

For assay [4], the system named is breast cancer cell line T47D. In words: MTT cancer cell cytotoxicity assay, T47D. The assay is classed as cell-based, human. The following applies: Homo sapiens, T47D cells, 48-72 h. Here is the method:
as §1, §2

Each structure is given as a SMILES string. Counter-ions that a name gives are not always drawn. Bounds are passed on as bounds.

`COc1ccccc1-c1nnc2ccc(-c3ccc(OCc4ccccc4)c(C)c3)cn12` [Example 37, 6-(4-Benzyloxy-3-methylphenyl)-3-(2-methoxyphenyl)-[1,2,4]triazolo[4,3-a]pyridine]: the IC50 in assay [1] worked out at 3340 nM; in assay [2], 7120 nM; in assay [3], 3560 nM; in assay [4], 9340 nM.

In the case of `COc1ccccc1-c1nnc2ccc(-c3ccc(O)c(C)c3)cn12` [Example 41, 6-(4-Hydroxy-3-methylphenyl)-3-(2-methoxyphenyl)-[1,2,4]triazolo[4,3-a]pyridine], the IC50 worked out at 117 nM in assay [1], 212 nM in assay [2], 155 nM in assay [3] and 129 nM in assay [4].

Consider `COc1ccc([N+](=O)[O-])cc1-c1nnc2ccc(-c3ccc(OC)c([N+](=O)[O-])c3)cn12` [Example 42, 6-(4-Methoxy-3-nitrophenyl)-3-(2-methoxy-5-nitrophenyl)-[1,2,4]triazolo[4,3-a]pyridine], for which the IC50 in assay [1] is 230 nM; in assay [2], 489 nM; in assay [3] it was 312 nM; in assay [4], 279 nM.

Take `COc1cc(-c2ccc3nnc(-c4ccccc4OC)n3c2)ccc1N` [Example 43, 6-(4-Amino-3-methoxyphenyl)-3-(2-methoxyphenyl)-[1,2,4]triazolo[4,3-a]pyridine]: the IC50 in assay [1] is 2200 nM; in assay [2], more than 10000 nM; in assay [3], 1640 nM; in assay [4], 2250 nM.

Turning to `COc1ccccc1-c1nnc2ccc(-c3ccc(C)c(N)c3)cn12` [Example 44, 6-(3-Amino-4-methylphenyl)-3-(2-methoxyphenyl)-[1,2,4]triazolo[4,3-a]pyridine], the concentration for half-maximal inhibition (IC50) in assay [1] came out at 20 nM; in assay [2], 54 nM; in assay [3] it was 29 nM; in assay [4], 48 nM.

`COc1ccccc1-c1nnc2ccc(-c3cccc(N)c3)cn12` [Example 45, 6-(3-Aminophenyl)-3-(2-methoxyphenyl)-[1,2,4]triazolo[4,3-a]pyridine hydrochloride]: the IC50 worked out at 829 nM in assay [1], 2930 nM in assay [2], 1250 nM in assay [3] and 678 nM in assay [4].

`COc1ccccc1-c1nnc2ccc(-c3ccc(N)cc3)cn12` [Example 47, 6-(4-Aminophenyl)-3-(2-methoxyphenyl)-[1,2,4]triazolo[4,3-a]pyridine hydrochloride]: the half-maximal inhibitory concentration (IC50) in assay [1] amounted to 365 nM; in assay [2] it was 1050 nM; in assay [3], 717 nM; in assay [4] it was 189 nM.

On to `COc1ccc(-c2cn3c(-c4ccccc4OC)nnc3cc2C)cc1` [Example 54, 3-(2-Methoxyphenyl)-6-(4-methoxyphenyl)-7-methyl-[1,2,4]triazolo[4,3-a]pyridine], for which the IC50 in assay [1] stood at 94 nM; in assay [2], 428 nM; in assay [3] it was 134 nM; in assay [4] it was 151 nM.

As to `COc1ccc(-c2cc(C)c3nnc(-c4ccccc4OC)n3c2)cc1` [Example 55, 3-(2-Methoxyphenyl)-6-(4-methoxyphenyl)-8-methyl-[1,2,4]triazolo[4,3-a]pyridine], the IC50 is 58 nM in assay [1], 122 nM in assay [2], 88 nM in assay [3] and 260 nM in assay [4].

As for `COc1cc(-c2ccc3nnc(-c4ccccc4OC)n3c2)ccc1O` [Example 56, 6-(4-Hydroxy-3-methoxyphenyl)-3-(2-methoxyphenyl)-[1,2,4]triazolo[4,3-a]pyridine], the IC50 in assay [1] is 1820 nM; in assay [2], more than 10000 nM; in assay [3], 706 nM; in assay [4], 1480 nM.

Turning to `COc1ccc(-c2ccc3nnc(-c4ccc(F)cc4OC)n3c2)cc1` [Example 58, 3-(4-Fluoro-2-methoxyphenyl)-6-(4-methoxyphenyl)-[1,2,4]triazolo[4,3-a]pyridine], the IC50 in assay [1] was determined as 17 nM; in assay [2], 59 nM; in assay [3], 35 nM; in assay [4], 54 nM.

Regarding `COc1ccc(-c2ccc3nnc(-c4c(OC)cccc4OC)n3c2)cc1` [Example 61, 3-(2,6-Dimethoxyphenyl)-6-(4-methoxyphenyl)-[1,2,4]triazolo[4,3-a]pyridine], the IC50 came out at 258 nM in assay [1], 2560 nM in assay [2], 949 nM in assay [3] and 2920 nM in assay [4].

Turning to `COc1ccc(-c2ccc3nnc(-c4cc(OC)ccc4OC)n3c2)cc1` [Example 62, 3-(2,5-Dimethoxyphenyl)-6-(4-methoxyphenyl)-[1,2,4]triazolo[4,3-a]pyridine], the IC50 was 42 nM in assay [1], 142 nM in assay [2], 77 nM in assay [3] and 156 nM in assay [4].

Take `COc1ccc(-c2ccc3nnc(-c4c(F)cccc4OC)n3c2)cc1` [Example 63, 3-(6-Fluoro-2-methoxyphenyl)-6-(4-methoxyphenyl)-[1,2,4]triazolo[4,3-a]pyridine]: the IC50 in assay [1] worked out at 36 nM; in assay [2] it was 174 nM; in assay [3] it was 236 nM; in assay [4], 149 nM.

As to `COc1ccc(-c2ccc3nnc(-c4ccc(OC)cc4)n3c2)cc1` [Example 64, 3,6-Bis(4-methoxyphenyl)-[1,2,4]triazolo[4,3-a]pyridine], the IC50 in assay [1] came to 150 nM; in assay [2] it was 641 nM; in assay [3] it was 568 nM; in assay [4], 341 nM.

With `COc1ccc(-c2ccc3nnc(-c4c(OC)ccc(Br)c4OC)n3c2)cc1` [Example 65, 3-(3-Bromo-2,6-dimethoxyphenyl)-6-(4-methoxyphenyl)-[1,2,4]triazolo[4,3-a]pyridine], the IC50 came out at 199 nM in assay [1], 2460 nM in assay [2], 944 nM in assay [3] and 569 nM in assay [4].

Turning to `COc1ccc(-c2ccc3nnc(-c4ccccc4OC(F)(F)F)n3c2)cc1` [Example 67, 6-(4-Methoxyphenyl)-3-(2-trifluoromethoxyphenyl)-[1,2,4]triazolo[4,3-a]pyridine], the half-maximal inhibitory concentration (IC50) worked out at 105 nM in assay [1], 471 nM in assay [2], 910 nM in assay [3] and 328 nM in assay [4].

On to `COc1ccc(-c2ccc3nnc(-c4ccccc4)n3c2)cc1` [Example 68, 6-(4-Methoxyphenyl)-3-phenyl-[1,2,4]triazolo[4,3-a]pyridine], for which the concentration for half-maximal inhibition (IC50) was 755 nM in assay [1], 7750 nM in assay [2], 5030 nM in assay [3] and 2940 nM in assay [4].

In the case of `COc1ccc(-c2ccc3nnc(-c4cc(OC)c(OC)cc4OC)n3c2)cc1` [Example 69, 6-(4-Methoxyphenyl)-3-(2,4,5-trimethoxyphenyl)-[1,2,4]triazolo[4,3-a]pyridine], the 50% inhibitory concentration (IC50) is 307 nM in assay [1], 833 nM in assay [2], 915 nM in assay [3] and 834 nM in assay [4].

Take `COc1ccc(-c2ccc3nnc(-c4ccc(OC)c(OC)c4OC)n3c2)cc1` [Example 72, 6-(4-Methoxyphenyl)-3-(2,3,4-trimethoxyphenyl)-[1,2,4]triazolo[4,3-a]pyridine]: the IC50 in assay [1] is 4140 nM; in assay [2], more than 10000 nM; in assay [3], more than 10000 nM; in assay [4], 8160 nM.

In the case of `COc1ccc(-c2ccc3nnc(-c4cccc(OC)c4OC)n3c2)cc1` [Example 73, 3-(2,3-Dimethoxyphenyl)-6-(4-methoxyphenyl)-[1,2,4]triazolo[4,3-a]pyridine], the half-maximal inhibitory concentration (IC50) is 3210 nM in assay [1], more than 10000 nM in assay [2], 2350 nM in assay [3] and 5320 nM in assay [4].

For the molecule `CCOc1ccccc1-c1nnc2ccc(-c3ccc(OC)cc3)cn12` [Example 74, 3-(2-Ethoxyphenyl)-6-(4-methoxyphenyl)-[1,2,4]triazolo[4,3-a]pyridine], the concentration for half-maximal inhibition (IC50) was determined as 38 nM in assay [1], 146 nM in assay [2], 141 nM in assay [3] and 151 nM in assay [4].

One may read the IC50 as the concentration that gives 50% inhibition. Higher therefore signals weaker potency in that assay.
